We go through 1 compound from article PMC12049818, “Identification of NUV-244 as a PNPLA3 I148M degrading small molecule” (iScience, 2025).

Structures are written as SMILES. Changes are numbered by the printed parent chain.

One experiment concerns the target T1, PNPLA3 I148M-tagRFP (Homo sapiens, UniProt Q9NST1, I148M).
T1 construct: host or cells: Huh7
T1 sequence (Q9NST1 1-481 I148M): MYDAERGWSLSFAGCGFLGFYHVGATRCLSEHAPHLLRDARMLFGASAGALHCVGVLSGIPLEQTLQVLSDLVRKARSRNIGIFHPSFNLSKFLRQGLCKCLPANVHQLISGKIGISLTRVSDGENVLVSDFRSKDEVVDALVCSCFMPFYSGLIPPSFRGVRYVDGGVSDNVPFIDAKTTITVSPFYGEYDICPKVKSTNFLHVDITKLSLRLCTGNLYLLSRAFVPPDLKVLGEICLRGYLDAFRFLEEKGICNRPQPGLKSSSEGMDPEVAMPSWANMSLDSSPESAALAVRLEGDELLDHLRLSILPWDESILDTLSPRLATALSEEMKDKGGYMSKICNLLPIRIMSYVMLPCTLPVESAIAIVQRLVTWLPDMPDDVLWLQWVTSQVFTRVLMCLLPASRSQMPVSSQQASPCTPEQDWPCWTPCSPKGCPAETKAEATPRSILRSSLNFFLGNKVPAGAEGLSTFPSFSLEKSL
Kind of experiment: Time-lapse imaging of PNPLA3 I148M-tagRFP on lipid droplets in Huh7 cells. In kind it is cell-based. Conditions: 1μM or 5μM; Huh7. On the procedure: To evaluate the kinetics of NUV-244 mediated reduction and degradation of PNPLA3 I148M-tagRFP, we performed time-lapse studies to follow PNPLA3 I148M-tagRFP over time (Figures 5A and 5B). 1μM or 5μM NUV-244 leads to rapid onset of reduction of PNPLA3 I148M-tagRFP on lipid droplets with half maximum effect reached after approximately 2h. To evaluate if PNPLA3 I148M-tagRFP degradation is 26S proteasome dependent, 1μM Bortezomib was co-incubated with NUV-244. Proteasome inhibition prevents PNPLA3 I148M-tagRFP reduction from lipid droplets (Figures 5A and 5B). […] A recent paper identified the E3 ligase responsible for the turnover of endogenous PNPLA3, the ER associated E3 ligase BFAR.[18]
Huh7 cells expressing PNPLA3 I148M-tagRFP were seeded at 4000 cells/well in 30 μL media in 384-well imaging plates (Revvity, PhenoPlate) and stored in a 37°C incubator with 5% CO2 and 95% humidity overnight. Cells were then incubated with Bodipy diluted in growth medium (38nM final concentration) for 1h at 37°C with 5% CO2 and 95% humidity. Cells were treated with DMSO control, 1 μM or 5 μM NUV-244, with or without 1 μM Bortezomib or 5 μM MLN7243. Cells were imaged every 15 minutes over a 20-hour period using an Opera Phenix confocal spinning disc microscope system (Revvity) with a 20x water objective at 561 nm (tagRFP) and 488 nm (BODIPY). Images were analyzed using Harmony software. PNPLA3 I148M-tagRFP intensity on lipid droplets was quantified and compared between treatments.

The target in a further experiment is T2, PNPLA3-tagRFP (Homo sapiens, UniProt Q9NST1).
T2 construct: host or cells: Huh7
T2 sequence (Q9NST1 1-481): T1 sequence (Q9NST1 1-481 I148M) with M148I
Description: Huh7 PNPLA3-tagRFP (WT) reduction on lipid droplets. In kind it is cell-based. Particulars: representative dose-response curve, Figure 3B. How it is done:
To confirm activity, NUV-244 was resynthesized. […] Next, to evaluate the specificity against PNPLA3 WT, Huh7 cells expressing PNPLA3-tagRFP were generated (Figures 3A and S3A). Like the mutant, PNPLA3-tagRFP localizes to lipid droplets in Huh7 cells and NUV-244 dose-dependently leads to a decrease of PNPLA3-tagRFP with a similar potency as for the mutant (Figure 3B).
For dose-response cells were seeded at 4000 c/30 μl per well in 384 well plates (Revvity, Waltham, MA, USA, PhenoPlate 384-well microplate, #6057308) and stored in a 37°C incubator with 5% CO2 and 95% humidity overnight. Compounds, serially diluted, and DMSO controls were added, and cells were incubated for another 24h. […]
Images were analyzed using Harmony (Revvity) and MetaXpress software (Molecular Devices, USA) to quantify lipid droplet morphology and PNPLA3 I148M-tagRFP intensity.
Assay plates were evaluated based on Z’ scores (>0.6) and signal-to-background ratio (>12) using Genedata Screener® for HTS and Condoseo modules (Genedata, Switzerland). […] Automated image analysis routines were set up to quantify the number, morphology and intensity of nuclei, lipid droplets and the intensity of PNPLA3 I148M-tagRFP on lipid droplets. […]

A word on the EC50: it is the concentration giving half of the maximal effect. Low readings indicate a more potent agent, high ones a less potent agent. With `Cc1cccc(Cc2nc(C)c(C(=O)Nc3cc(O)ccc3Cl)s2)c1` [NUV-244], at PNPLA3 I148M-tagRFP, the “time to half maximum effect of reduction of PNPLA3 I148M-tagRFP on lipid droplets” value is given as “approximately 2 h”. The compound also returned an EC50 on PNPLA3-tagRFP of 213 nM.
